{"source": "PubChem BioAssay AID1963844", "about": "(Molecular Pharmacology Branch, DTP, NCI, 2024);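 note: spheroids exposed to compounds for one week before readout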;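 for viability, T/C: percent of DMSO vehicle wells luminescence so 100% = untreated viability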", "system": "422866-222-R5-J1-PDC complex spheroid viability", "experiment": "Anticancer human tumor 422866-222-R5-J1-PDC patient-derived pancreatic adenocarcinoma cell line growth inhibition [POLQ]", "conditions": "for IC50: curve of first compound; for viability, T/C: stronger effect = lower value", "procedure,_shortened": "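PDC + HUVEC + MSC complex spheroids; POLQ inhibitors ± partner drugs; top conc. at/near clinical Cmax, else 10 microM (SN-38 1 microM), half-log dilutions; 37 degrees C, 5% CO2.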"}
{"smiles": "COc1ccc([C@@H](O)c2cc(-c3ncnc4cc(N5CCOCC5)ccc34)c(F)cc2Cl)nn1", "note": "+ COC1C(OC(N)=O)C(O)C(Oc2ccc3c(O)c(NC(=O)c4ccc(O)c(CC=C(C)C)c4)c(=O)oc3c2C)OC1(C)C", "values": [{"measurement": "IC50", "setting": "second compound 0.0316 µM", "result": 2650, "unit": "nM"}, {"measurement": "IC50", "setting": "second compound 0.1 µM", "result": 1980, "unit": "nM"}, {"measurement": "IC50", "setting": "second compound 0.316 µM", "result": 2190, "unit": "nM"}, {"measurement": "IC50", "setting": "second compound 1 µM", "result": 2910, "unit": "nM"}, {"measurement": "IC50", "setting": "second compound 3.16 µM", "result": 2360, "unit": "nM"}, {"measurement": "IC50", "setting": "second compound 10 µM", "result": 1940, "unit": "nM"}, {"measurement": "viability, T/C", "setting": "second compound 0.0316 µM, first compound 0.0316 µM", "result": 96.4, "unit": "%"}, {"measurement": "viability, T/C", "setting": "second compound 0.0316 µM, first compound 0.1 µM", "result": 96, "unit": "%"}, {"measurement": "viability, T/C", "setting": "second compound 0.0316 µM, first compound 0.316 µM", "result": 76.5, "unit": "%"}, {"measurement": "viability, T/C", "setting": "second compound 0.0316 µM, first compound 1 µM", "result": 67.2, "unit": "%"}, {"measurement": "viability, T/C", "setting": "second compound 0.0316 µM, first compound 3.16 µM", "result": 44.6, "unit": "%"}, {"measurement": "viability, T/C", "setting": "second compound 0.0316 µM, first compound 10 µM", "result": 40.5, "unit": "%"}, {"measurement": "viability, T/C", "setting": "second compound 0.1 µM, first compound 0.0316 µM", "result": 101, "unit": "%"}, {"measurement": "viability, T/C", "setting": "second compound 0.1 µM, first compound 0.1 µM", "result": 100, "unit": "%"}, {"measurement": "viability, T/C", "setting": "second compound 0.1 µM, first compound 0.316 µM", "result": 93.3, "unit": "%"}, {"measurement": "viability, T/C", "setting": "second compound 0.1 µM, first compound 1 µM", "result": 60, "unit": "%"}, {"measurement": "viability, T/C", "setting": "second compound 0.1 µM, first compound 3.16 µM", "result": 45.5, "unit": "%"}, {"measurement": "viability, T/C", "setting": "second compound 0.1 µM, first compound 10 µM", "result": 37.4, "unit": "%"}, {"measurement": "viability, T/C", "setting": "second compound 0.316 µM, first compound 0.0316 µM", "result": 88.5, "unit": "%"}, {"measurement": "viability, T/C", "setting": "second compound 0.316 µM, first compound 0.1 µM", "result": 94.9, "unit": "%"}, {"measurement": "viability, T/C", "setting": "second compound 0.316 µM, first compound 0.316 µM", "result": 82.8, "unit": "%"}, {"measurement": "viability, T/C", "setting": "second compound 0.316 µM, first compound 1 µM", "result": 61.7, "unit": "%"}, {"measurement": "viability, T/C", "setting": "second compound 0.316 µM, first compound 3.16 µM", "result": 41.2, "unit": "%"}, {"measurement": "viability, T/C", "setting": "second compound 0.316 µM, first compound 10 µM", "result": 46.5, "unit": "%"}, {"measurement": "viability, T/C", "setting": "second compound 1 µM, first compound 0.0316 µM", "result": 109, "unit": "%"}, {"measurement": "viability, T/C", "setting": "second compound 1 µM, first compound 0.1 µM", "result": 102, "unit": "%"}, {"measurement": "viability, T/C", "setting": "second compound 1 µM, first compound 0.316 µM", "result": 76, "unit": "%"}, {"measurement": "viability, T/C", "setting": "second compound 1 µM, first compound 1 µM", "result": 67.5, "unit": "%"}, {"measurement": "viability, T/C", "setting": "second compound 1 µM, first compound 3.16 µM", "result": 47.1, "unit": "%"}, {"measurement": "viability, T/C", "setting": "second compound 1 µM, first compound 10 µM", "result": 40, "unit": "%"}, {"measurement": "viability, T/C", "setting": "second compound 3.16 µM, first compound 0.0316 µM", "result": 98.8, "unit": "%"}, {"measurement": "viability, T/C", "setting": "second compound 3.16 µM, first compound 0.1 µM", "result": 99.5, "unit": "%"}, {"measurement": "viability, T/C", "setting": "second compound 3.16 µM, first compound 0.316 µM", "result": 77.9, "unit": "%"}, {"measurement": "viability, T/C", "setting": "second compound 3.16 µM, first compound 1 µM", "result": 62, "unit": "%"}, {"measurement": "viability, T/C", "setting": "second compound 3.16 µM, first compound 3.16 µM", "result": 48.3, "unit": "%"}, {"measurement": "viability, T/C", "setting": "second compound 3.16 µM, first compound 10 µM", "result": 30.4, "unit": "%"}, {"measurement": "viability, T/C", "setting": "second compound 10 µM, first compound 0.0316 µM", "result": 97.7, "unit": "%"}, {"measurement": "viability, T/C", "setting": "second compound 10 µM, first compound 0.1 µM", "result": 99.5, "unit": "%"}, {"measurement": "viability, T/C", "setting": "second compound 10 µM, first compound 0.316 µM", "result": 86.7, "unit": "%"}, {"measurement": "viability, T/C", "setting": "second compound 10 µM, first compound 1 µM", "result": 58.7, "unit": "%"}, {"measurement": "viability, T/C", "setting": "second compound 10 µM, first compound 3.16 µM", "result": 45.4, "unit": "%"}, {"measurement": "viability, T/C", "setting": "second compound 10 µM, first compound 10 µM", "result": 37, "unit": "%"}]}
